Measurements taken from paper PMC7321301, “Characteristics of New Peptides GQLGEHGGAGMG, GEHGGAGMGGGQFQPV, EQGFLPGPEESGR, RLARAGLAQ, YGNPVGGVGH, and GNPVGGVGHGTTGT as Inhibitors of Enzymes Involved in Metabolic Syndrome and Antimicrobial Potential” (Molecules, 2020).
Where two headings read alike, the source gives them in different places. No end group written: not given here.

How the values were obtained:
COX-2 = target: T1, COX-2 (Homo sapiens, UniProt P35354); assay: COX-2 inhibitory activity (COX Activity Assay kit) and kinetics; format: biochemical; conditions: mean ± SD, triplicate
T1 construct: purchased Cayman Chemical 760151
T1 sequence (P35354 18-604): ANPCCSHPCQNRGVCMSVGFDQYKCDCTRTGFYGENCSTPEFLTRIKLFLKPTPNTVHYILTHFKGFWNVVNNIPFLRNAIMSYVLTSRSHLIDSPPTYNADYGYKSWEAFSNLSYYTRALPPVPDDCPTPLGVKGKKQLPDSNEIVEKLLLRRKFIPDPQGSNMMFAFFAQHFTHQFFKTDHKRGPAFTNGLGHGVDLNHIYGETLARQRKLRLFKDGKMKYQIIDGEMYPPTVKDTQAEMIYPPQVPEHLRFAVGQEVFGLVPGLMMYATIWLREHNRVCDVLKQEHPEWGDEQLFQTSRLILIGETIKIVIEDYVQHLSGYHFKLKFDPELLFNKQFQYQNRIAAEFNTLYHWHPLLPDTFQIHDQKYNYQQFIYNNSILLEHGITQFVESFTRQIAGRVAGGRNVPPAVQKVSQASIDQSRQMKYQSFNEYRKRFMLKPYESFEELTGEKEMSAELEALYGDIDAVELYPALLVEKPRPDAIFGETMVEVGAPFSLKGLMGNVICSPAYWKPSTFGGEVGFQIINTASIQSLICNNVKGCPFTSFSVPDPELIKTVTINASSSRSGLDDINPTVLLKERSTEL
Protocol: (§1) For all inhibitory activity, IC50 was calculated. The IC50 value defined as the concentration of the extract inhibiting 50% of the enzyme activity was determined by measuring the enzyme inhibitory activity and peptide contents in each sample. The IC50 value was calculated from the plotted graph of the inhibition activity for the five different peptide concentrations.
The effect of the peptide on COX-1 and COX-2 was measured using the COX Activity Assay kit from Cayman Chemical (Item No. 760151, Ann Arbor, MI, USA). COX activity was determined according to the instructions provided with the kit. The enzyme activity was assayed by calorimetric measurement of the appearance of oxidized N,N,N′,N′-Tetramethyl-p-phenylenediamine (TMPD) at 590 nm using BioTek Microplate Readers (Epoch™ 2 BioTek, Bad Friedrichshall, Germany).
(§2) Substrate solutions (5.0, 10.0, 15.0, and 20.0 mM) were prepared and used to determine the Michaelis constant (Km), the inhibition constant (Ki), and the maximum velocity (Vmax) of enzymes. The kinetic parameters were evaluated by Lineweaver–Burk’s method. The reaction conditions were the same as in the enzyme inhibitory activity assay.

HECa10 cells = assay: MTT test; format: cell-based, murine; conditions: 24-h incubation, 0.1–100 µg/mL
Protocol: The study was conducted according to the procedure described by Rokicki et al.. HECa10 cells after 80–90% confluence were trypsinized (3 min, 37 °C), centrifuged (300 g, 5 min), counted, and plated in 96-well plates at a concentration of 1 × 10^4 cells/well. Then, 24 h after seeding, cells were washed with phosphate-buffered saline (PBS) solution and culture medium (Dulbecco’s Modified Eagle Medium (DMEM) + 10% fetal bovine serum (FBS) + antibiotics, all from Life Technologies, Warsaw, Poland) was added with test factors in concentrations: 0.1; 1; 5; 10; 50; 100 µg/mL). Then, 24 h after addition of the compounds, proliferation tests (MTT, NR, LDH) were performed. The color intensity was determined using a Fluostar Omega microplate reader. Results are presented as the mean ± SD of 3 independent experiments (n = 12).
Briefly, the cells were seeded in a 96-well culture plate at a concentration of 1 × 10^4 cells/well. Then, 24 h after seeding, the cells were rinsed twice with PBS (Life Technologies, Warsaw, Poland) and resuspended in fresh growth medium. Peptide fractions were added at concentrations of 0 (control), 0.1, 1, 5, 10, 50, and 100 µg/mL. After 24 h incubation with the proteins, the assessment of cell metabolic activity based on MTT tests was performed (MTT kit, Sigma Aldrich, Poznań, Poland). The absorbance was measured at 570 nm with a FLUOstar Omega reader (BMG Labtech GmbH, Ortenberg, Germany). The results are presented as the percentage of the control values (mean ± SD). Each assay was performed in triplicate (n = 18).

pancreatic lipase = target: T2, pancreatic lipase (Homo sapiens, UniProt P16233); assay: Pancreatic lipase inhibitory activity (pNPA) and kinetics; format: biochemical; conditions: mean ± SD, triplicate
T2 sequence (P16233 17-465): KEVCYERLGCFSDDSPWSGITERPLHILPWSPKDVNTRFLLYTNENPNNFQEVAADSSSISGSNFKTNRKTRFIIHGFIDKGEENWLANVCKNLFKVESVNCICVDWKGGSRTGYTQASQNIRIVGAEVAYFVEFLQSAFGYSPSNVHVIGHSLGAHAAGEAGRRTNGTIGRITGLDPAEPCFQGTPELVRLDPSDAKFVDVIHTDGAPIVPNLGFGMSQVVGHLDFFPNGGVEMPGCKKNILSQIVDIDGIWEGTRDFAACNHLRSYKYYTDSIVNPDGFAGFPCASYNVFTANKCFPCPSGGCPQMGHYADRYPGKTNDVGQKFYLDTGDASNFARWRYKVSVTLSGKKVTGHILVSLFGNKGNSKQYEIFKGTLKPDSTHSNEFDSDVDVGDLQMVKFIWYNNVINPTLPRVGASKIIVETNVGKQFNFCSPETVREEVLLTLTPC
Protocol: as §1
Lipase inhibitory activity was determined with the method described by Jakubczyk et al.. The final volume of the reaction mixture was 150 μL (2 μL of the enzyme, 5 μL of the sample, 142 μL of 100 mM potassium phosphate buffer, pH 7.5, and 1 μL of a 100 mM p-nitrophenyl acetate (pNPA) solution in dimethyl sulfoxide (DMSO). Changes in absorbance at […] were measured using BioTek Microplate Readers.
as §2

LOX = LOX (Glycine max, UniProt P08170); format: biochemical; conditions: read-out: IC50 LOX
Protocol: as §1
The LOX inhibitory assay was carried out with the method described by Szymanowska et al.. A solution of pure linoleic acid was used as a substrate. First, 157.2 µl of pure linoleic acid was mixed with 157.2 µL of Tween-20 and 10 mL of deionized water. The substrate was clarified with 1 mL of 1 M NaOH and M/15 phosphate buffer pH = 7.0 was added to the volume of 200 mL. The enzymatic reaction mixture contained 297 µL of M/15 phosphate buffer pH = 7, 2 µl of the substrate solution, and 1 µL of the enzyme solution. A mixture of 298 µl of phosphate buffer (pH 7.0) and 2 µL of the substrate solution was used to calibrate the spectrophotometer. Changes in absorbance at 234 nm were measured using BioTek Microplate Readers.
as §2

LOX, sequence (P08170 whole entry): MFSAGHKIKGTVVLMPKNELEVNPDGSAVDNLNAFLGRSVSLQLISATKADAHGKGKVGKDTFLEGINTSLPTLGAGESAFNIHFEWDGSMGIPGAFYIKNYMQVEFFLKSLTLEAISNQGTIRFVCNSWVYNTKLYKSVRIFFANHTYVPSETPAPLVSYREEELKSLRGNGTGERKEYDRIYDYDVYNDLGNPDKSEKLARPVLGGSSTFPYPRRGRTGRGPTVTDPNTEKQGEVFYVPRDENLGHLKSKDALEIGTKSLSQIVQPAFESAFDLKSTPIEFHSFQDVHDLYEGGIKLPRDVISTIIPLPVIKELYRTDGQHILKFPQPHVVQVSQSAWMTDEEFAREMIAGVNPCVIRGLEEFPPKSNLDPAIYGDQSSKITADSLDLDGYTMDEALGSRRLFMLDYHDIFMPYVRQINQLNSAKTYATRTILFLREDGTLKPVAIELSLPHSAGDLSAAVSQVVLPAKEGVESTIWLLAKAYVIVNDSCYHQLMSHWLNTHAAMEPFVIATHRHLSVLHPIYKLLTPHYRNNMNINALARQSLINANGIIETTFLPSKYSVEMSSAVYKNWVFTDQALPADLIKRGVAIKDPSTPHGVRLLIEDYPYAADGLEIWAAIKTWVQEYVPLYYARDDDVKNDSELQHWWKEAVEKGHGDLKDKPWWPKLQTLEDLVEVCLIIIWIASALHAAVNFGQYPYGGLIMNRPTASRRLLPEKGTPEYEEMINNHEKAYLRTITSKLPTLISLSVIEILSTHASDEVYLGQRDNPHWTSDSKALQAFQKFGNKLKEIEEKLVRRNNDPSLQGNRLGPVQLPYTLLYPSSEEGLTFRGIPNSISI

Sequence | IC50 (COX-2) [µM] | MTT test, HECa10 cell count compared to control (HECa10 cells) | IC50 (pancreatic lipase) [µM] | IC50 (LOX) [µM] | IC50 (LOX; mean ± SD, triplicate) [µM]
EQGFLPGPEESGR [ER-13, EQGFLPGPEESGR] | 3.07 | no statistically significant differences | 54.8 | 60.1 | –
RLARAGLAQ [RQ-9, RLARAGLAQ] | 4.99 | no statistically significant differences | 102 | – | 205
GEHGGAGMGGGQFQPV [GV-16, GEHGGAGMGGGQFQPV] | 30.2 | no statistically significant differences | 41.9 | 68.5 | –
GNPVGGVGHGTTGT [GT-14, GNPVGGVGHGTTGT] | 3.66 | no statistically significant differences | 86.1 | 153 | –
YGNPVGGVGH [YH-10, YGNPVGGVGH] | 16.2 | declined statistically significantly | 107 | 127 | –
GQLGEHGGAGMG [GG-12, GQLGEHGGAGMG] | 15.7 | no statistically significant differences | 56.6 | 131 | –
